Key:
[1] = cited from earlier work
[2] = tested on: knees of patients; experiment: Intra-articular ozone and PRP treatment of knees, VAS scores; type: in vivo, human; conditions: 8 sessions of ozone and 2 sessions of PRP, 187 knees of 100 patients, baseline 8.5
Description: Ozone gas injection may cause short-term burning and itching. However, this effect is rarely seen in intramuscular injections. For this reason, ozonide solutions comprising local anesthetic should be preferred especially if superficial injection will be performed. […] It is known that it prevents loss of cartilage by increasing oxygenation of the joint cartilage and reduces pain due to the analgesic effect with its anti-inflammatory effect. There are many publications in the literature about this issue. Similarly, in our own research, it was observed that VAS scores decreased from 8.5 to 4 on average as a result of the application of 8 sessions of ozone and 2 sessions of PRP treatment on 187 knees of 100 patients. In these applications, 20 micrograms of ozone are given as 20 ml (cc). That is, 400 micrograms of ozone have been applied. […] It can be applied at most twice a week. In addition, it can be combined with local anesthetic and anti-inflammatory agents. Vitamin E, which becomes popular in experimental studies in recent years, can be applied together with oil solutions and anti-inflammatory drugs. Hyaluronic acid is known to increase cartilage matrix in the intraarticular injection. It is known that better results are obtained with the ozone treatment and hyaluronic acid combinations. […]

[3] = 20° C.; cited from earlier work
[4] = tested on: patients diagnosed with a cervical disc hernia; experiment: Regional injections of ozone and PRP in cervical disc hernia, VAS pain score; type: in vivo, human; conditions: 8 sessions of ozone, 2 sessions of PRP, 66 patients, 9.3 at the beginning
Procedure: Cervical disc and spinal disc hernias are one of the common health issues. In the studies we conduct on 66 patients diagnosed with a cervical disc hernia, the pain score is evaluated according to the VAS in 1 month, 4 months and 1 year after the regional injections of 8 sessions of ozone, 2 sessions of PRP. The pain score was 9.3 at the beginning, 6.9 in the first month, 4.8 in the 4th month and 3.6 at the end of the first year. It is also found in the literature that the regional injections of ozone are so effective. However, to perform these applications, there is a need for a clinic or a hospital where ozone treatment is offered. The dosages of solutions of ozonized oil or ozonides in water in regional applications are also applicable here. Depending on the size of the region, the ozonized oil or ozonide solution of 2-4 mg (2000-4000 ppm), which is made with ozonides comprising 10% ozone may be injected into paravertebral muscles and subcutaneous tissue to be able to benefit from anti-inflammatory and analgesic effects. However, with tissue oxygenation, dissolution of muscle spasm, and increased blood supply to the hernia, a long-acting treatment and shrinking of the hernia is provided.

SMILES: CCCCN1CCCCC1C(=O)Nc1c(C)cccc1C (stereo not shown) [bupivacaine]
- duration of local effect ([1]; injection in oil): 72 h

SMILES: O=[O+][O-] [ozone]
- VAS score after treatment, average [2]: 4
- half life [3]: 40 min
- VAS pain score at the end of the first year [4]: 3.6
- VAS pain score in the 4th month [4]: 4.8
- VAS pain score in the first month [4]: 6.9

SMILES: CCN(CC)CC(=O)Nc1c(C)cccc1C [Lidocaine]
- duration of effect in the injection zone ([1]; normal injection): up to 2 hours

Reference: US20210007360A1, “SOLUTIONS COMPRISING OZONIZED OIL” (priority 2018, published 2021)
